Experimental data: article PMC6131760, “4-Phenyl-1,3-thiazole-2-amines as scaffolds for new antileishmanial agents” (The Journal of Venomous Animals and Toxins Including …, 2018)
Where two headings read alike, the source gives them in different places.

Tests used:
[1] = test system: promastigotes of Leishmania amazonensis (MHOM/BR/1973/M2269); assay: Antileishmanial assay against promastigotes (PrestoBlue viability); assay type: cell-based; details: L. amazonensis promastigotes
Method: All compounds were assayed against promastigotes of Leishmania amazonensis (MHOM/BR/1973/M2269). Promastigotes were grown in 199 media (Sigma, USA) supplemented with 10% (v/v) of fetal bovine serum, 1% penicillin (10,000 UI/mL)/streptomycin (10.0 mg/mL) (Sigma, USA). The parasites were collected at log phase, they were counted at the Neubauer chamber, their concentration was adjusted to 1 × 10^6 cell/mL, and their cells were seeded at a 96-wells plate. The 4-phenyl-2-aminothiazoles were added to the culture, considering concentrations ranging from 3.2 to 142 μM. Compounds were diluted in Dimethyl sulfoxide (DMSO) (25 mg/mL) and diluted in 199 media to generate a 1% DMSO starting solution of each test compound. Positive control with no compounds and DMSO control were considered at the assay. All plates were incubated at 25 °C for 48 h, and PrestoBlue® vital dye was added to the wells.
Viability was accessed with PrestoBlue® (Invitrogen, ThermoFisher) according to the manufacturer’s instructions. The reagent was added in each well (10 μL) and plates incubated for 2 h. Then, plates were read on a microplate reader (PowerWave HT, Biotek) with excitation/emission 560/590 nm (nm). The relative fluorescence units were used to generate the quantitative results. All compounds were analyzed as duplicates, and the parameters to calculate IC50 were obtained by GraphPad Prism, version 5.0. IC50 values were determined by the Hill equation rearranged. LogIC50=logEC50−logTop−Bottom/Y−Bottom−1/HillSlope

[2] = test system: VERO cells; assay: Cytotoxicity assay in Vero cells (MTT); assay type: cell-based, African green monkeys
Method: (§1) Cytotoxicity was also evaluated using Vero cells, a monkey kidney cell line obtained from the American Type Culture Collection (ATCC CCL-81; Manassas, VA). The cytotoxicity was determined by the 3-(4,5dimethylthiazol- 2-yl)-2,5-diphenyltetrazolium bromide (MTT) method according to a previously described procedure.
(§2) In all cases, the CC50 was calculated as described as in the Antileishmanial assay Section.
(§3) Selectivity indexes (SI) were calculated by dividing CC50 against each mammalian cell line by the IC50 against L. amazonensis (CC50/IC50).

[3] = test system: THP1 cells; assay: Cytotoxicity assay in THP-1 cells differentiated into macrophages (PrestoBlue); assay type: cell-based, human
Method: (§4) The cytotoxicity was measured in L929 and THP1 cell lines using PrestoBlue®Cell Viability Reagent (Thermo Scientific, Invitrogen) as described by Lall et al. with modifications. First, cells were maintained in RPMI 1640 (Gibco) supplemented with 10% fetal bovine serum (FBS) and 1% antibiotics (100 U/mL penicillin, 100 μg/mL streptomycin). Cell cultures were grown and maintained at 37 °C in a humidified incubator with 5% CO2. Then, L929 cells were seeded in 96-wells flat microtiter plate at a concentration of 1 × 10^5cells/mL (100 μL/well). To THP-1 cells, cultures were differentiated into macrophages by adding 50 ng/mL 12-myristate 13-acetate phorbol (PMA) (Calbiochem, San Diego, USA) in RPMI-free FBS. After 24 h of culturing, the adhered cells were washed with PBS and RPMI with 10% FBS were added. […] The plates were incubated for 48 h and, thereafter, 20 μL/well PrestoBlue® was added. The plates were incubated for further 2 h and the fluorescence was read at bottom using 540–570 nm excitation and 580–610 nm emission. The average of the fluorescence values of the control wells (medium plus PrestoBlue®) was subtracted from the fluorescence value of the positive controls (cells, medium, and PrestoBlue®) and from each experimental well (cells, medium, compounds and PrestoBlue®). In all cases, the CC50 was calculated as described as in the Antileishmanial assay Section. Selectivity indexes (SI) were calculated by dividing CC50 against each mammalian cell line by the IC50 against L. amazonensis (CC50/IC50).

[4] = test system: L929 cells; assay: Cytotoxicity assay in L929 cells (PrestoBlue); assay type: cell-based
Method: as §4

[5] = Cytotoxicity assay in Vero cells (MTT); assay type: cell-based, African green monkeys; details: African green monkey, Vero cells (monkey kidney cell line, ATCC CCL-81); Vero cells, MTT
Method: as §1, §2, §3

[6] = Cytotoxicity assay in THP-1 cells differentiated into macrophages (PrestoBlue); assay type: cell-based, human; details: human, THP-1 cells differentiated into macrophages with PMA; PMA-differentiated THP-1, 48 h, PrestoBlue; read-out: CC50 THP1 cells
Method: as §4

[7] = Cytotoxicity assay in L929 cells (PrestoBlue); assay type: cell-based; details: mouse, L929 fibroblast cells; L929 fibroblasts, 48 h, PrestoBlue
Method: as §4

[8] = Leishmania amazonensis, 48 h, 48 h at 25 °C, PrestoBlue, 3.2 to 142 μM tested, read-out: IC50
[9] = Vero cells, MTT, read-out: CC50 VERO cells
[10] = PMA-differentiated THP-1, 48 h, PrestoBlue, read-out: CC50 THP1 cells
[11] = L929 fibroblasts, 48 h, PrestoBlue, read-out: CC50 L929 cells
[12] = 48 h at 25 °C, PrestoBlue, 3.2 to 142 μM tested, read-out: IC50

Row | SMILES | IC50 [1, 8] [µM] | CC50 [2, 9] [µM] | CC50 [3, 10] [µM] | pIC50 ([1]; pIC50 = −log10 (IC50)) | CC50 [4, 11] [µM] | IC50 [1, 12] [µM] | further results
1 | C[C@@H]1[C@H](O)[C@@H](C)/C=C/C=C/C=C/C=C/C=C/C=C/C=C/[C@H](O[C@@H]2O[C@H](C)[C@@H](O)[C@H](N)[C@@H]2O)C[C@@H]2O[C@](O)(C[C@@H](O)C[C@@H](O)[C@H](O)CC[C@@H](O)C[C@@H](O)CC(=O)O[C@H]1C)C[C@H](O)[C@H]2C(=O)O [Amphotericin B, reference compound] | 16.2 |  |  |  |  |  | 
2 | Nc1nc(-c2ccccc2)cs1 [Compound 1] |  | 710 | 144 | 3.02 | 198 |  | 
3 | Cc1ccc(-c2csc(N)n2)cc1 [Compound 2] |  | 658 | 135 | 3.97 | 160 | 108 | 
4 | CCc1ccc(-c2csc(N)n2)cc1 [Compound 3] |  |  |  | 4.33 |  | 46.6 | CC50 [2]: 1220 µM; CC50 [3]: 117 µM; CC50 [4]: 95.5 µM
5 | Nc1nc(-c2ccc(Cl)c(Cl)c2)cs1 [Compound 4] |  | 255 | 84.7 | 4.27 | 121 |  | 
6 | Nc1nc(-c2ccc(C(F)(F)F)cc2)cs1 [Compound 5] |  | 512 | 92.2 | 4.27 | 106 |  | 
7 | CC(C)(C)c1ccc(-c2csc(N)n2)cc1 [Compound 6] | 21 |  |  |  |  | 20.8 | melting point: 227 to 230 °C; CC50 [5]: 118 µM; CC50 at 48 h [6]: 45.7 µM; IC50 ([1]; Leishmania amazonensis, pIC50 = −log10 (IC50), read-out: pIC50 (converted)): 20.9 µM; CC50 at 48 h [7]: 27.1 µM
8 | Nc1nc(-c2ccc(O)cc2)cs1 [Compound 7] |  | 651 |  | inactive |  |  | CC50 THP1 cells ([3]; PMA-differentiated THP-1, 48 h, PrestoBlue): inactive; IC50 ([1]; 48 h at 25 °C, PrestoBlue, 3.2 to 142 μM tested): inactive; CC50 L929 cells ([4]; L929 fibroblasts, 48 h, PrestoBlue): Inactive
9 | Nc1nc(-c2ccc(Cl)cc2)cs1 [Compound 8] |  | 596 | 82.2 | 3.94 | 115 | 116 | 
10 | N=C(N)c1ccc(OCCCCCOc2ccc(C(=N)N)cc2)cc1 [Pentamidine, reference compound] | 10.8 |  |  |  |  |  | 
